Data as given in ChEMBL document CHEMBL4373741, “Direct and straightforward access to substituted alkyl selenols as novel carbonic anhydrase inhibitors” (Eur J Med Chem, 2020).

How the values were obtained:
[1] = molecular target: Carbonic anhydrase 9 (Homo sapiens, UniProt Q16790); experiment: Inhibition of recombinant human CA9 incubated for 15 mins by phenol red dye based stopped flow CO2 hydration assay
[2] = molecular target: Carbonic anhydrase 7 (Homo sapiens, UniProt P43166); experiment: Inhibition of recombinant human CA7 incubated for 15 mins by phenol red dye based stopped flow CO2 hydration assay
Chain of Carbonic anhydrase 7 (P43166 whole entry): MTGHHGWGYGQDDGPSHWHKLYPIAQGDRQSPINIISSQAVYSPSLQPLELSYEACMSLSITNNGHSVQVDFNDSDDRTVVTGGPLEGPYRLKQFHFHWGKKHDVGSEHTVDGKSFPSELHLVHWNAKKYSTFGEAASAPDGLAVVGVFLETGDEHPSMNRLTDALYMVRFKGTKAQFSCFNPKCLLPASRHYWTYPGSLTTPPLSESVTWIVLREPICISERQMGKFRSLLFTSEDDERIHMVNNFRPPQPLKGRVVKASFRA

| SMILES | Ki [1] [µM] | Ki [2] [µM] |
| --- | --- | --- |
| COc1ccc(COCC(O)C[SeH])cc1 (stereo not given) | > 100 | > 100 |
| Cc1ccc(S(=O)(=O)N[C@H](C[SeH])C(C)C)cc1 | 2.1 | – |
| CC[C@H](C)[C@@H](C[SeH])NS(=O)(=O)c1ccc(C)cc1 | > 100 | > 100 |
| O[C@@H](CCl)C[SeH] | 60 | > 100 |
| SC(C[SeH])COCc1ccccc1 (stereo not given) | 6.6 | – |
| C=CCOCC(S)C[SeH] (stereo not given) | 38.6 | > 100 |
| CC(C)[C@@H](C[SeH])NC(=O)OC(C)(C)C | > 100 | – |
| O[C@H](CCl)C[SeH] | > 100 | > 100 |
| OC(C[SeH])COCc1ccccc1 (stereo not given) | 58.7 | – |
| C=CCOCC(O)C[SeH] (stereo not given) | > 100 | – |
